# Experimental data as given in article PMC10688702, “The indole motif is essential for the antitrypanosomal activity of N^5-substituted paullones” (PLOS ONE, 2023).
# Where two headings read alike, the source gives them in different places.
# What was measured:
# [1] = test system: bloodstream form of T. b. brucei strain 427; assay: Viability assay for T. b. brucei (whole parasite, bioluminescence); assay type: cell-based; details: 24 h; for T. b. brucei (BS) proliferation [% at 10 μM]: 10 μM compound; for EC50: read-out: T. b. brucei (BS) [EC50
# Protocol: Viability assay for T. b. brucei. The bloodstream form of the monomorphic T. b. brucei strain 427, cell line 5141313, constitutively and stably expressing an ectopic copy of the Photinus pyralis red-shifted luciferase, was cultured in vitro with HMI-9 medium, supplemented with 10% fetal bovine serum, 10 U/mL penicillin (Gibco), 10 μg/mL streptomycin (Gibco), 0.2 μg/mL bleomycin (Jena Bioscience), 4 μg/mL G418 disulfate salt (Sigma-Aldrich) and 0.2 μg/mL puromycin (Invitrogen), inside a humidified incubator (Thermo Fisher Scientific) with controlled temperature (37°C) and CO2 (5%) in a 25 or 75 cm^2 vented-cap culture-flask. The anti-trypanosomal activity of compounds was evaluated in a 96-well culture plate containing 2.2 μL/well DMSO (negative control) or compounds dissolved in DMSO (1% final concentration), and 220 μL/well of a suspension of 1 × 10^5 parasites/mL. The plates were incubated at 37°C and 5% CO2 for 24 h. Next, each well was transferred to a 96-well black plate, and 20 μL of a solution containing d-luciferin (1.5 mg/mL in PBS glucose 1% w/v) and Triton X-100 (0.05% v/v) was added. Bioluminescence signal was measured in a LUMIstar OPTIMA Microplate luminometer using the following settings: 10 s shaking, 5 s/well acquisition, 0.2 s measurement delay, maximum gain, and 37°C. For the bioluminescence assay, parasite viability was calculated according to the following formula: parasiteviability%=BLcpd-BLblank/BLneg-BLblank*100%
# BL refers to the mean of bioluminescence signal corresponding to the tested compound (cpd), the blank (blank, complete media containing 1% v/v DMSO), or the negative control (neg, parasites treated with 1% v/v DMSO). EC50 values were determined from concentration-response curves fitted to a four-parameter sigmoid equation using the GraphPad Prism software (version 6.0). All errors are expressed as one SD, estimated as σ^n-1. For a detailed explanation of the protocol, see Dibello et al..
# [2] = test system: trypanothione synthetase of T. b. brucei (TbTryS); assay: TryS activity screening assay on recombinant TbTryS; assay type: biochemical; details: % activity at 30 μM compound, errors 2 SD
# Protocol: (§1) TryS from different trypanosomatids was produced in recombinant form with an N-terminal His-tag. The constructs pET-15b TbTryS and pET-28c(+)LiTryS were used to express TryS of T. b. brucei 427 (MITat1.4, GenBank accession protein id CAC87573.1), and L. infantum JPCM5 (GenBank accession protein id CAM69145.1). E. coli strain BL21 (DE3) served as the expression host. For TbTryS, the cells were cultured in a medium based in Terrific Broth and induction with isopropyl 1-thio-β-D-galactopyranoside (IPTG), while for LiTryS, the cells were cultured in ZYM-5052 auto-induction medium. For a detailed description of the expression, see Benítez et al.. The purification was performed by immobilised metal affinity chromatography in a HisTrap Fast Flow column (GE Healthcare) followed by size exclusion chromatography. […] The fractions containing recombinant TryS with ≥95% purity were pooled and concentrated to >10 mg protein/mL using a 10 kDa cut-off Amicon filter (Millipore, Billerica, CA). Glycerol was added at a final concentration of 40% (v/v). The samples were stored at -80°C. Enzyme purity and activity were assessed by SDS-PAGE (12%) under reducing conditions and by the end-point TryS assay (see TryS activity screening assay), respectively. Protein concentration was determined using the bicinchoninic acid assay with bovine serum albumin as standard. The protocols yielded 25–30 mg TbTryS or LiTryS per litre of culture medium and homogeneous specific activity.
# (§2) For all TryS, ATP was used at 150 μM because of a high background signal at higher concentrations and Spd fixed at 2 mM, in agreement with the intracellular levels calculated from data reported in the literature for trypanosomatids. GSH was adjusted to 0.05 and 0.25 mM for TbTryS and LiTryS, respectively, to avoid substrate inhibition or to approach physiological concentrations. […] Microtiter plate wells were loaded with 5 μL of the test compound, DMSO (reaction control) or a TryS specific inhibitor (inhibition control) and 40 μL of MM solution. The reactions were then started by adding 5 μL of TryS (2 and 3*10^−5 μmol*min^-1*mL^-1 for LiTryS and TbTryS, respectively) and stopped after 15 min with 200 μL BIOMOL® GREEN reagent (Enzo Life Sciences). The compounds used as inhibition control were added at concentrations that inhibited 50% TryS activity: 30 μM and 150 nM MOL2008 for TbTryS and LiTryS, respectively. Blanks were prepared for each condition by adding 5 μL of screening reaction buffer instead of the enzyme. The TryS activity is calculated as follows: TrySactivity%=A650nmCi-A650nmCiB/A650nmE-A650nmEB*100%
# (§3) A650 nm Ci is the mean absorbance at 650 nm for the reaction test with compound I (Ci), A650 nm CiB is the mean absorbance at 650 nm for the blank control with compound I (CiB), A650 nm E is the mean absorbance at 650 nm for the reaction control with DMSO (E) and A650 nm EB is the mean absorbance at 650 nm for the blank control with DMSO (EB). The errors were expressed as 2 standard deviations (SD), SD estimated as σ^n−1.
# [3] = molecular target: trypanothione synthetase of L. infantum (LiTryS) (Leishmania infantum, UniProt A4I2Z3); assay: TryS activity screening assay on recombinant LiTryS; assay type: biochemical; details: read-out: LiTryS activity [% at 30 μM]
# Protocol: as §1, §2, §3
# [4] = test system: murine macrophages J774.A1; assay: Cytotoxicity assays on murine macrophages (WST-1); assay type: cell-based; details: error 1 SD; for Macrophage toxicity [% at 30 μM]: % cell death at 30 μM
# Protocol: Cytotoxicity assays on murine macrophages. Murine macrophages from the cell line J774.A1 (ATCC® TIB-67TM) were cultivated under a humidified 5% CO2/95% air atmosphere at 37°C in Dulbecco’s modified Eagle’s medium (DMEM) supplemented with 10% (v/v) FBS, 10 U/mL penicillin and 10 μg/mL streptomycin. The experimental protocol for the determination of EC50 values was identical as described by Demoro et al. 2012 [71], with the following change: 200 μL/well of a cell suspension at 6 × 10^4 cells per mL was added in a 96-well culture plate and washed with 150 μL of DMEM. The cytotoxicity of the compounds was evaluated in triplicate using the WST-1 reagent (Roche). The control treatment included cells cultured in the presence of DMSO 1% (v/v). Absorbance at 450 nm (Ai 450 nm), corresponding to the formazan dye produced by metabolically active cells, was measured with an EL 800-microplate reader. The corrected absorbance values at 450 nm (Ai c 450 nm) were obtained by subtracting the corresponding absorbance value at 630 nm (Ai 630 nm) and the blank average (Ablank 450 nm): Aic450nm=Ai450nm-Ai630nm-Ablank450nm
# Cell viability (%), with the number of viable cells proportional to the absorbance, was calculated as follows: cellviability%=Aic450nm/Anegativecontrolc450nm*100%
# Ai c 450 nm refers to an absorbance obtained from cells treated with compound I at a specific concentration (i) and Anegative control c 450 nm refers to an absorbance obtained from cells in the DMSO-treated control (negative control). The errors were calculated using error propagations and are expressed as one SD, estimated as σ^n−1.
# [5] = test system: L. infantum amastigotes (intracellular, in J774.A1 macrophages); assay: Viability assay for L. infantum amastigotes; assay type: cell-based; details: Leishmania infantum, J774.A1, 24 h, read-out: L. infantum amastigote viability [% at 20 μM]
# Protocol: Viability assay for L. infantum amastigotes. L. infantum promastigotes from the reference strain MHOM/MA/67/ITMAP263, stably transfected with a vector encoding a red-shifted luciferase gene (RE9HLUC; Branchini et al.; Benítez et al.) were grown in fresh complete RPMI medium (RPMI basic medium containing 25 mM HEPES, 10% v/v iFBS, 100 U/mL penicillin, 100 μg/mL streptomycin and 15 μg/mL hygromycin B) at 28°C in sealed culture flasks. Metacyclic promastigotes were obtained by a negative selection procedure using peanut agglutinin and used to infect murine macrophages (cell line J774.A1) at a 1:10 ratio for macrophages (5×10^6 cells): parasites (5×10^7 cells). 200 μL of this suspension was added per well to a 96-well culture microplate, which was then incubated at 37°C for 24 h in a 5% CO2/95% air atmosphere incubator. […] The culture microplate was incubated in the CO2 incubator for additional 24 h. Next, the supernatant was removed and the microplate wells were washed with pre-warmed PBS (200 μL). […] All conditions were tested in triplicates and the percentage amastigote viability was calculated as described for infective T. b. brucei, with errors expressed as one SD, estimated as σ^n-1.
# A macrophage cell density correction factor based on the incorporation of propidium iodide was calculated and applied to normalise amastigote viability related to host cell density in the well. For a detailed explanation of the protocol, see Benítez et al..
# trypanothione synthetase of L. infantum (LiTryS), sequence (A4I2Z3 entry or part of it): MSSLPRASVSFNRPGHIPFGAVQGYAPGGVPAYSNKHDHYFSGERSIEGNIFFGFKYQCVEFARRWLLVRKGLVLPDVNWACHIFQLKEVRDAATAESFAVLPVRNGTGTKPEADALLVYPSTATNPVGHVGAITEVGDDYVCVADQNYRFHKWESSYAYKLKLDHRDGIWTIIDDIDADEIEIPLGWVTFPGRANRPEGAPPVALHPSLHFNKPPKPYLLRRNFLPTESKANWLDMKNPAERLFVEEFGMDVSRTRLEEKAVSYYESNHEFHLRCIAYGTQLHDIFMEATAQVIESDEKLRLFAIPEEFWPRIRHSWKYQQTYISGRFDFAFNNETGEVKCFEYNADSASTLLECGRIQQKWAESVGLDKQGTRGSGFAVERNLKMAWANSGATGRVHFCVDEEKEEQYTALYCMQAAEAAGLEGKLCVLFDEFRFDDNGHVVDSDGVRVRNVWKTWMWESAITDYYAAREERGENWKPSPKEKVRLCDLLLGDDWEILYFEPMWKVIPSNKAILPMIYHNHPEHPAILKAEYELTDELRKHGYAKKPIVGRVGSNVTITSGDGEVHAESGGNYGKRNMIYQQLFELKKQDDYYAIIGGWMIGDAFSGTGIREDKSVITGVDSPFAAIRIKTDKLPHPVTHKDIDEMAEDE
SMILES,T. b. brucei (BS) proliferation [% at 10 μM] [1] [%],EC50 ([1]; Trypanosoma brucei) [µM],TbTryS activity [% at 30 μM] [2] [%],activity at 30 µM [3] [%],Macrophage toxicity [% at stated conc.] ([4]; % cell death at 60 μM) [%],viability at 20 µM [5] [%],Macrophage toxicity [% at 30 μM] [4] [%],EC50 [1] [µM],Macrophage toxicity [% at stated conc.] ([4]; % cell death at 100 μM) [%]
"CN(CCNC(=O)CN1C(=O)Cc2c([nH]c3ccc(I)cc23)-c2ccc(Cl)cc21)C(=O)OC(C)(C)C [10a, tert-Butyl {2-[2-(3-chloro-9-iodo-6-oxo-7,12-dihydrobenzo[2,3]azepino[4,5-b]indol-5(6H)-yl)acetamido]ethyl}(methyl)carbamate]",0.0 ± 1.2,5.3 ± 1.3,90.2 ± 13.2,38.3 ± 4.8,75.9 ± 9.9,–,–,–,–
"CC(C)(C)OC(=O)N1CCN(CCNC(=O)CN2C(=O)Cc3ccccc3-c3ccccc32)CC1 [4b, tert-Butyl 4-{2-[2-(6-oxo-6,7-dihydro-5H-dibenzo[b,d]azepin-5-yl)acetamido]ethyl}piperazine-1-carboxylate]",–,–,–,103 ± 8.6,–,93.9 ± 6.6,40,–,–
"CN(CCNC(=O)CN1C(=O)Cc2c([nH]c3ccc(C(F)(F)F)cc23)-c2ccc(Cl)cc21)C(=O)OC(C)(C)C [10c, tert-Butyl {2-[2-(3-chloro-6-oxo-9-trifluoromethyl-7,12-dihydrobenzo[2,3]azepino[4,5-b]indol-5(6H)-yl)acetamido]ethyl}(methyl)carbamate]",0.0 ± 1.0,11.6 ± 1.8,95.2 ± 13.2,43.2 ± 9.1,–,–,–,~12,94.9 ± 7.1
"CC(C)(C)OC(=O)CN1C(=O)Cc2ccccc2-c2ccccc21 [compound 18, tert-Butyl 2-(6-oxo-6,7-dihydro-5H-dibenzo[b,d]azepin-5-yl)acetate]",–,–,–,99.4 ± 3,–,–,60,–,–
"CN(CCNC(=O)CN1C(=O)Cc2c([nH]c3ccc(Cl)cc23)-c2ccc(Cl)cc21)C(=O)OC(C)(C)C [10b, tert-Butyl {2-[2-(3,9-dichloro-6-oxo-7,12-dihydrobenzo[2,3]azepino[4,5-b]indol-5(6H)-yl)acetamido]ethyl}(methyl)carbamate]",0.0 ± 1.4,1.9 ± 1.2,94.2 ± 17.1,35.4,47.9 ± 4.8,–,–,–,–
